Experiment [1] can be described thus: ADAM10 protease inhibitors, dose response, selectivity assay for ADAM17 exosite inhibitor project, biochemical, FRET peptide substrate, recombinant human ADAM10 (AID 743259).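 Note: ADAM10 enzyme cleaving a FRET peptide substrate.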
Experiment [2] concerns the target Disintegrin and metalloproteinase domain-containing protein 17 (Homo sapiens, UniProt P78536). Briefly: exosite inhibitors of ADAM17, dose response, biochemical (AID 743260).
Experiment [3] addresses Mitogen-activated protein kinase 10 (Homo sapiens, UniProt P53779). Briefly: Dose response biochemical screening assay for inhibitors of c-Jun N-Terminal Kinase 3 (JNK3). [Related pubchem assays: 746 ].
Experiment [4] can be described thus: P. falciparum late gametocyte killing, dose response, luminescence (AID 1117278).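 Note: gametocytes exposed to compound for 24 hours.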 It counts as functional, cell-based.
Experiment [5] in a line: Jurkat T cell cytotoxicity, dose response, cytotoxicity control for P. falciparum gametocyte viability project, luminescence (AID 1117277).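 Note: potency reflects loss of cellular ATP meaning fewer viable cells.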 The format is functional, cell-based.
For experiment [6], the target named is T1, Methionyl-tRNA synthetase, putative (Trypanosoma brucei brucei, UniProt Q38C91).
T1 sequence (Q38C91 whole entry): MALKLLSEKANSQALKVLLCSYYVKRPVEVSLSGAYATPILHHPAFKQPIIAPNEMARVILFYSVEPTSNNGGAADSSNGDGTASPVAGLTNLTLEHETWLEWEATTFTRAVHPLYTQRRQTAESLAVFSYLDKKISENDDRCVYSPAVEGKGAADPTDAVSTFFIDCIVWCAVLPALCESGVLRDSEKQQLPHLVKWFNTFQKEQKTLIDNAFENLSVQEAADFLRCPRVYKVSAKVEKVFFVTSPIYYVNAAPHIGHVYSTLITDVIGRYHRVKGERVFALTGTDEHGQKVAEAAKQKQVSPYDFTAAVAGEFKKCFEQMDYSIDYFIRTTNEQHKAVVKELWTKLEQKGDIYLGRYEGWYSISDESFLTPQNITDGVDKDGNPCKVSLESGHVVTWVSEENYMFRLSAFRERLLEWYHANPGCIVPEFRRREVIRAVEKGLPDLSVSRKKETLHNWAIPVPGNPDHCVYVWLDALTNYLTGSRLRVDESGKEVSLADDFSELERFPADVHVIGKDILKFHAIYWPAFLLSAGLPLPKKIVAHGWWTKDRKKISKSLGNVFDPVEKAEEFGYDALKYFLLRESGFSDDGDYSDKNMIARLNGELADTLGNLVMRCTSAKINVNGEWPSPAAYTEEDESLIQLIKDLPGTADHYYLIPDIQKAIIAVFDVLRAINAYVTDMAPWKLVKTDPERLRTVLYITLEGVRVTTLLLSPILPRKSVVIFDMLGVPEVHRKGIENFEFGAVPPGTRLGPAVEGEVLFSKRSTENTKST
It counts as functional, Trypanosoma brucei brucei strain 927/4 GUTat10.1.

For experiment [7], the target named is T1, Methionyl-tRNA synthetase, putative. It counts as functional, Trypanosoma brucei brucei strain 927/4 GUTat10.1. This is another data set of the same source.
The nature of experiment [8]: Counterscreen for inhibitors of Trypanosoma brucei methionyl tRNA synthetase (MetRS): Luminescence-based cell-based high throughput dose response assay to identify compounds that are cytotoxic to Jurkat human T lymphocyte cells. The format is functional. A general note: Counterscreens check selectivity or assay interference.
Another experiment deals with Paired box protein Pax-8 (Homo sapiens, UniProt Q06710). The experiment is described as follows: inhibitors of PAX8-driven TPO luciferase reporter, dose response, RMG-I cells, cherry-pick (AID 687027).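 Note: luciferase reporter driven by Pax8 target thyroperoxidase promoter measured by SteadyGlo luminescence.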 It counts as functional, cell-based. (In general: In a reporter assay the amount or activity of a reporter protein is the signal.)
Chain of Paired box protein Pax-8 (Q06710 whole entry): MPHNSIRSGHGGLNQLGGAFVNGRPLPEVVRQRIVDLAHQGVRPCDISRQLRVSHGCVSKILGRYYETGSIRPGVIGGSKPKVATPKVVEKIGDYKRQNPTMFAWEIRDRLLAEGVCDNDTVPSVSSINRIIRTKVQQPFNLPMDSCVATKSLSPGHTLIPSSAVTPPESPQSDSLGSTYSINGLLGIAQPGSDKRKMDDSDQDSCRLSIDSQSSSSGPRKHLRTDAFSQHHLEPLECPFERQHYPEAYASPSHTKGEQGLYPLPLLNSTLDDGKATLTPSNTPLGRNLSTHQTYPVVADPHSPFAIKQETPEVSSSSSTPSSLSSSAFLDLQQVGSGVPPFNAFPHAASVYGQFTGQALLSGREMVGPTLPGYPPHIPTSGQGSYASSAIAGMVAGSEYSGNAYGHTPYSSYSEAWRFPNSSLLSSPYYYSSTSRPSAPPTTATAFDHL
Experiment [9] in a line: cytotoxicity in OVCAR8 ovarian cancer cells, dose response, PAX8 project, cell-based, plate reader, dry powder samples (AID 743197). It counts as functional. The following applies: OVCAR-8.
Experiment [10] can be described thus: A2780 ovarian cancer cell cytotoxicity, dose response, cytotoxicity control, plate reader, dry powder samples (AID 743046). It counts as functional, cell-based.
Experiment [11] has as its target T2, Low molecular weight phosphotyrosine protein phosphatase (Homo sapiens, UniProt P24666).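 Note: Dose-response confirmation assay measuring inhibition of LMPTP enzyme activity by fluorescence intensity read-out.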
T2 sequence (P24666 whole entry): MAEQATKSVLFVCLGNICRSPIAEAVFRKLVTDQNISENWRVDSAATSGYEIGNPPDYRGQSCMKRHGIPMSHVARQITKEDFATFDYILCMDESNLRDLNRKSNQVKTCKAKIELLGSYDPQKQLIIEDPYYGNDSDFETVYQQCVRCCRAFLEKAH
It counts as functional. Conditions: read-out: IC50_Mean.

Experiment [12] can be described thus: ZM109 Env clade C HIV-1 fusion inhibitors, dose response, HeLa effector, CEM target cells, luciferase, cherry-pick (AID 652058). It counts as functional, cell-based.
The nature of experiment [13]: microbe, parasite or virus in culture. The format is functional. Conditions: Mycobacterium tuberculosis.
Experiment [14] deals with FAD-linked sulfhydryl oxidase ALR (Homo sapiens, UniProt P55789). The experiment is described as follows: inhibitors of human ALR sulfhydryl oxidase, dose response, biochemical, H2O2 detection, luminescence, cherry-pick (AID 493248).
Chain of FAD-linked sulfhydryl oxidase ALR (P55789 whole entry, the tested form may be a part): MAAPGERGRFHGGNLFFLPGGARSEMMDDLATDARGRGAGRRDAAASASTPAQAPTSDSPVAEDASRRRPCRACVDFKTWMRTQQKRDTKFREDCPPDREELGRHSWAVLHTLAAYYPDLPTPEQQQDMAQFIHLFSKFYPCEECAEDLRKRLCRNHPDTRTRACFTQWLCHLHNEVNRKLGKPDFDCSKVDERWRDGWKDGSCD
Experiment [15] is described as follows: inhibitors of clade B AD8 Env fusion, dose response, cell-based, cherry-pick (AID 652062).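 Note: luciferase signal from cell-cell fusion driven by HIV-1 clade B AD8 Env; potency is for inhibitors of fusion seen as a drop in luminescence.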 It counts as functional.
The nature of experiment [16]: off-target signal loss in HeLa-CEM21 co-culture – HeLa F-luc CTL cells, cherry-picked, counter-screen for HIV-1 Env fusion inhibitor project, dose response (AID 652040).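 Note: potency for signal decrease marking cytotoxic or nonspecific inhibition.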 It counts as functional, cell-based.
A short description of experiment [17]: inhibitors of HIV Env-driven cell fusion, dose response, cherry-pick (AID 652057). It counts as functional, cell-based.
Experiment [18] is described as follows: CEM21 lymphoblast cell cytotoxicity, dose response, cytotoxicity control for viral fusion inhibitor project, CellTiter-Glo luminescence, cherry-picked (AID 652042).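 Note: potency for signal decrease meaning cytotoxicity.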 The format is functional, cell-based. A general note: In ATP-based viability assays light output follows the ATP content of the culture.
The subject of another experiment is INS1. The experiment is described as follows: beta cell apoptosis inhibitors, cytokine rescue, dose response, luminescence, retest (AID 449756).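 Note: cell death triggered by IL-1 beta plus TNF-alpha plus IFN-gamma mixture; protective hits raise ATP signal compared with cytokine alone wells.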 It counts as functional, cell-based. Conditions: Rattus norvegicus.

Active and inactive are the calls of the source.

Usually AC50 stands for the concentration giving half of the maximal activity seen.

Chain of Disintegrin and metalloproteinase domain-containing protein 17 (P78536 whole entry, the tested form may be a part): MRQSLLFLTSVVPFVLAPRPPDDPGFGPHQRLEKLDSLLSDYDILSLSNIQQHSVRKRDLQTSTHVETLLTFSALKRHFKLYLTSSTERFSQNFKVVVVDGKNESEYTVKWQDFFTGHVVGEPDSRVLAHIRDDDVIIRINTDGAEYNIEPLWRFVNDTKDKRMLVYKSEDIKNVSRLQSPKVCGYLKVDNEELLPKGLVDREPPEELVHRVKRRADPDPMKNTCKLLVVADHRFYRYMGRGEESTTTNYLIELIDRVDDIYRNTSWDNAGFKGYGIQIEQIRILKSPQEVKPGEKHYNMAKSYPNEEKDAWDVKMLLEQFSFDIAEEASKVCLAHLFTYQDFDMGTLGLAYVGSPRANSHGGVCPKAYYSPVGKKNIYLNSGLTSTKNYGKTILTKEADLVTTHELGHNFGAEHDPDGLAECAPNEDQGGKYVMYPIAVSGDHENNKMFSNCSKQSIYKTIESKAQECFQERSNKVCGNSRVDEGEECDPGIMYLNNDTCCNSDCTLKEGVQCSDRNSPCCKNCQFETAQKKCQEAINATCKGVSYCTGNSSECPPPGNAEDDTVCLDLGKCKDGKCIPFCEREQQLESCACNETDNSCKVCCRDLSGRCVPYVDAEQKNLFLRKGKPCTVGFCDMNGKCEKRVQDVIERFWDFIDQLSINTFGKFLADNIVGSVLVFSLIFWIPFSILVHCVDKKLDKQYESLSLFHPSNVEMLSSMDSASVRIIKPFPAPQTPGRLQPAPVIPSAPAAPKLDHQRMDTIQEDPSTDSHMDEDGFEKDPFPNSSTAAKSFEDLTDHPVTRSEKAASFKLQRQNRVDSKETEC
Chain of Mitogen-activated protein kinase 10 (P53779 whole entry): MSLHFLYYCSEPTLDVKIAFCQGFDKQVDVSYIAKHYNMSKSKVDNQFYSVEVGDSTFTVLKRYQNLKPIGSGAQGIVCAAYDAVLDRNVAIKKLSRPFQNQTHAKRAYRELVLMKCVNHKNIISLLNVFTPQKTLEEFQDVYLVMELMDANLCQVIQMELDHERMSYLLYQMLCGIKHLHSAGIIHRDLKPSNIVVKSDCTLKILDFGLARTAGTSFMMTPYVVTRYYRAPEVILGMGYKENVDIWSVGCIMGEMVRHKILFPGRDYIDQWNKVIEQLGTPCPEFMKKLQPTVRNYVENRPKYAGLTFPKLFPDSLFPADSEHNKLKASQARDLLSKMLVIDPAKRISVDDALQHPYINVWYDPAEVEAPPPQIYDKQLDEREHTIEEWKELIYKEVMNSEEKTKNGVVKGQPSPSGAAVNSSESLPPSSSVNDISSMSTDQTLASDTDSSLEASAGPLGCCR

For `CC(=O)Oc1ccc(C(=O)Nc2cccc(C(=O)c3ccc(C)c(C)c3)c2)cc1`, the IC50 in experiment [1] and in [2] was > 69.5 µM (inactive) each time.

In the case of `COc1ccc2nc(NC(=O)Cc3ccc(OC)c(S(=O)(=O)N4CCOCC4)c3)sc2c1`, in experiment [3], the IC50 was 28.1 µM (not active).

`O=C1c2ccccc2C(O)N1Cc1cccs1` (centres undefined): the IC50 in [4] is > 109 µM (inactive); in experiment [5] it was > 83.3 µM (inactive).

With `O=C(Cc1ccc(S(=O)(=O)N2CCOCC2)s1)Nc1ccc(Br)c(C(F)(F)F)c1`, the IC50 is 20.9 µM (inactive) in experiment [6], 19.2 µM (inactive) in [7] and 46.7 µM (inactive) in experiment [8].

For the compound `Cc1ccccc1-c1ccc2c(c1)O[C@H](CN(C)C(=O)Nc1ccc(C(F)(F)F)cc1)[C@H](C)CN([C@H](C)CO)S2(=O)=O`, the concentration at half-maximal activity (AC50) is 9.06 µM (active) on Paired box protein Pax-8, > 70 µM (inactive) in [9] and 14.3 µM (active) in [10].

Regarding `O=C(Nc1ccc(O)c(-c2nc3ccccc3s2)c1)c1cc(=O)c2ccccc2o1`, the IC50 in experiment [11] was 5.27 µM (active).

Consider `CC(=O)Nc1ccc(S(=O)(=O)Nc2ccc(N3CCCCC3)cc2)cc1`, for which the AC50 in experiment [12] is 1.18 µM (active); in experiment [14] it was 2.07 µM (active); in experiment [15], 17.8 µM (active); in experiment [16] it was 22.6 µM (active); in [17] it was 10.4 µM (active); in [18], 23.4 µM (active). The AC50 in the experiment with INS1 was 3.64 µM (active). Further, the CC50 in experiment [13] was 27.3 µM (active).

As to `CCc1ccc(CN(C)Cc2nc(COc3ccccc3)no2)nc1`, the IC50 in experiment [4] is > 109 µM (inactive); in [5] it was > 83.3 µM (inactive).

On to `CN(C)S(=O)(=O)c1cccc(NC(=O)c2cc(-c3cccs3)nn2-c2cccc(Cl)c2)c1`, for which the IC50 in experiment [1] and in experiment [2] was > 69.5 µM (inactive) each time.

(Values after ChEMBL document CHEMBL1201862, “PubChem BioAssay data set” (2004).)
